Assay results from PubChem BioAssay (NCI).
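Values below derive from 48-hour exposures of cells grown in 96-well plates, with endpoints linearly interpolated between the two concentrations bracketing the appropriate inhibition level. TGI is the concentration that stops growth completely.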

Tests used:
Assay in all cases: NCI anticancer screen, dose series, 48 h
HT29 colon = test system: HT29 colon
HCT-15 colon = test system: HCT-15 colon
MOLT-4 leukemia = test system: MOLT-4 leukemia
OVCAR-5 ovarian = test system: OVCAR-5 ovarian
SK-MEL-2 melanoma = test system: SK-MEL-2 melanoma
RPMI-8226 leukemia = test system: RPMI-8226 leukemia
KM12 colon = test system: KM12 colon
KM20L2 colon = test system: KM20L2 colon
SK-MEL-28 melanoma = test system: SK-MEL-28 melanoma
U251 CNS = test system: U251 CNS
SNB-75 CNS = test system: SNB-75 CNS
786-0 renal = test system: 786-0 renal
SK-OV-3 ovarian = test system: SK-OV-3 ovarian
HCT-116 colon = test system: HCT-116 colon
UACC-257 melanoma = test system: UACC-257 melanoma
M19-MEL melanoma = test system: M19-MEL melanoma
A549 NSCLC = test system: A549 NSCLC
ACHN renal = test system: ACHN renal
CAKI-1 renal = test system: CAKI-1 renal
SW-620 colon = test system: SW-620 colon
DLD-1 colon = test system: DLD-1 colon
SNB-19 CNS = test system: SNB-19 CNS
OVCAR-3 ovarian = test system: OVCAR-3 ovarian
SK-MEL-5 melanoma = test system: SK-MEL-5 melanoma
COLO 205 colon = test system: COLO 205 colon
M14 melanoma = test system: M14 melanoma
OVCAR-4 ovarian = test system: OVCAR-4 ovarian
CCRF-CEM leukemia = test system: CCRF-CEM leukemia
DMS 273 small cell lung = test system: DMS 273 small cell lung
LOX IMVI melanoma = test system: LOX IMVI melanoma
A498 renal = test system: A498 renal
NCI-H522 lung = test system: NCI-H522 lung
SF-268 CNS = test system: SF-268 CNS
SF-295 CNS = test system: SF-295 CNS
HOP-62 NSCLC = test system: HOP-62 NSCLC
SF-539 CNS = test system: SF-539 CNS
DMS 114 small cell lung = test system: DMS 114 small cell lung
MALME-3M melanoma = test system: MALME-3M melanoma
OVCAR-8 ovarian = test system: OVCAR-8 ovarian
HOP-92 NSCLC = test system: HOP-92 NSCLC
TK-10 renal = test system: TK-10 renal
SN12C renal = test system: SN12C renal
NCI-H23 lung = test system: NCI-H23 lung
RXF 393 renal = test system: RXF 393 renal
EKVX NSCLC = test system: EKVX NSCLC
HOP-18 NSCLC = test system: HOP-18 NSCLC
UACC-62 melanoma = test system: UACC-62 melanoma
LXFL 529 NSCLC = test system: LXFL 529 NSCLC
IGROV1 ovarian = test system: IGROV1 ovarian
XF 498 CNS = test system: XF 498 CNS
UO-31 renal = test system: UO-31 renal
SNB-78 CNS = test system: SNB-78 CNS
NCI-H460 lung = test system: NCI-H460 lung
K-562 leukemia = test system: K-562 leukemia
HCC-2998 colon = test system: HCC-2998 colon
NCI-H226 lung = test system: NCI-H226 lung
HL-60(TB) leukemia = test system: HL-60(TB) leukemia

`Cc1cc(NS(=O)(=O)c2ccc(Nc3c4ccccc4nc4c(C(=O)Nc5ccc(S(N)(=O)=O)cc5)cccc34)cc2)no1` showed a TGI (HT29 colon) greater than 100 µM, a TGI (HCT-15 colon) greater than 100 µM and a TGI (MOLT-4 leukemia) of 78.9 µM. The TGI (OVCAR-5 ovarian) was greater than 100 µM, the TGI (SK-MEL-2 melanoma) was 69.3 µM and the TGI (RPMI-8226 leukemia) was greater than 100 µM. It also gave a TGI (KM12 colon) of 50.6 µM, a TGI (KM20L2 colon) greater than 100 µM and a TGI (SK-MEL-28 melanoma) of 83.9 µM. For the same compound, the TGI (U251 CNS) was 57.4 µM, the TGI (SNB-75 CNS) was greater than 100 µM and the TGI (786-0 renal) was greater than 100 µM. For the same compound, the TGI (SK-OV-3 ovarian) was greater than 100 µM, the TGI (HCT-116 colon) was greater than 100 µM and the TGI (UACC-257 melanoma) was greater than 100 µM. It also gave a TGI (M19-MEL melanoma) of 64.8 µM, a TGI (A549 NSCLC) greater than 100 µM and a TGI (ACHN renal) greater than 100 µM. It also gave a TGI (CAKI-1 renal) greater than 100 µM, a TGI (SW-620 colon) greater than 100 µM and a TGI (DLD-1 colon) greater than 100 µM. The TGI (SNB-19 CNS) was 84.9 µM, the TGI (OVCAR-3 ovarian) was 31.7 µM and the TGI (SK-MEL-5 melanoma) was greater than 100 µM. The TGI (COLO 205 colon) was greater than 100 µM, the TGI (M14 melanoma) was greater than 100 µM and the TGI (OVCAR-4 ovarian) was 51.1 µM. For the same compound, the TGI (CCRF-CEM leukemia) was 79.9 µM, the TGI (DMS 273 small cell lung) was greater than 100 µM and the TGI (LOX IMVI melanoma) was greater than 100 µM. It also gave a TGI (A498 renal) greater than 100 µM, a TGI (NCI-H522 lung) of 54.1 µM and a TGI (SF-268 CNS) greater than 100 µM. The TGI (SF-295 CNS) was greater than 100 µM, the TGI (HOP-62 NSCLC) was greater than 100 µM and the TGI (SF-539 CNS) was 61.2 µM. It also gave a TGI (DMS 114 small cell lung) of 77.3 µM, a TGI (MALME-3M melanoma) of 53.1 µM and a TGI (OVCAR-8 ovarian) greater than 100 µM. It also gave a TGI (HOP-92 NSCLC) of 81.6 µM, a TGI (TK-10 renal) greater than 100 µM and a TGI (SN12C renal) greater than 100 µM. For the same compound, the TGI (NCI-H23 lung) was greater than 100 µM, the TGI (RXF 393 renal) was greater than 100 µM and the TGI (EKVX NSCLC) was greater than 100 µM. The TGI (HOP-18 NSCLC) was greater than 100 µM, the TGI (UACC-62 melanoma) was 55.8 µM and the TGI (LXFL 529 NSCLC) was 44.8 µM. It also gave a TGI (IGROV1 ovarian) greater than 100 µM, a TGI (XF 498 CNS) of 57.9 µM and a TGI (UO-31 renal) greater than 100 µM. It also gave a TGI (SNB-78 CNS) of 60 µM, a TGI (NCI-H460 lung) greater than 100 µM and a TGI (K-562 leukemia) greater than 100 µM.

Compound `COc1nc(NC2OC(COC(C)=O)C(OC(C)=O)C(OC(C)=O)C2OC(C)=O)c2c(OC(C)=O)c(C)c(=O)oc2n1` (centres undefined) has a TGI (HT29 colon) greater than 100 µM, a TGI (HCT-15 colon) greater than 100 µM and a TGI (MOLT-4 leukemia) greater than 100 µM. The TGI (OVCAR-5 ovarian) was greater than 100 µM, the TGI (SK-MEL-2 melanoma) was greater than 100 µM and the TGI (RPMI-8226 leukemia) was greater than 100 µM. For the same compound, the TGI (KM12 colon) was greater than 100 µM, the TGI (KM20L2 colon) was greater than 100 µM and the TGI (U251 CNS) was greater than 100 µM. It also gave a TGI (SNB-75 CNS) greater than 100 µM, a TGI (786-0 renal) greater than 100 µM and a TGI (SK-OV-3 ovarian) greater than 100 µM. For the same compound, the TGI (HCT-116 colon) was greater than 100 µM, the TGI (UACC-257 melanoma) was greater than 100 µM and the TGI (M19-MEL melanoma) was greater than 100 µM. The TGI (A549 NSCLC) was greater than 100 µM, the TGI (ACHN renal) was 3.16 µM and the TGI (CAKI-1 renal) was greater than 100 µM. The TGI (SW-620 colon) was greater than 100 µM, the TGI (DLD-1 colon) was greater than 100 µM and the TGI (SNB-19 CNS) was greater than 100 µM. For the same compound, the TGI (OVCAR-3 ovarian) was greater than 100 µM, the TGI (HCC-2998 colon) was greater than 100 µM and the TGI (SK-MEL-5 melanoma) was greater than 100 µM. The TGI (COLO 205 colon) was greater than 100 µM, the TGI (M14 melanoma) was greater than 100 µM and the TGI (OVCAR-4 ovarian) was greater than 100 µM. The TGI (CCRF-CEM leukemia) was greater than 100 µM, the TGI (LOX IMVI melanoma) was greater than 100 µM and the TGI (A498 renal) was 3.18 µM. The TGI (NCI-H226 lung) was greater than 100 µM, the TGI (SF-295 CNS) was greater than 100 µM and the TGI (HOP-62 NSCLC) was greater than 100 µM. The TGI (SF-539 CNS) was greater than 100 µM, the TGI (DMS 114 small cell lung) was greater than 100 µM and the TGI (MALME-3M melanoma) was greater than 100 µM. It also gave a TGI (OVCAR-8 ovarian) greater than 100 µM, a TGI (HOP-92 NSCLC) greater than 100 µM and a TGI (TK-10 renal) greater than 100 µM. For the same compound, the TGI (SN12C renal) was greater than 100 µM, the TGI (NCI-H23 lung) was greater than 100 µM and the TGI (RXF 393 renal) was greater than 100 µM. For the same compound, the TGI (EKVX NSCLC) was greater than 100 µM, the TGI (HOP-18 NSCLC) was greater than 100 µM and the TGI (UACC-62 melanoma) was greater than 100 µM. For the same compound, the TGI (LXFL 529 NSCLC) was greater than 100 µM, the TGI (IGROV1 ovarian) was greater than 100 µM and the TGI (HL-60(TB) leukemia) was greater than 100 µM. It also gave a TGI (XF 498 CNS) greater than 100 µM, a TGI (UO-31 renal) greater than 100 µM and a TGI (SNB-78 CNS) greater than 100 µM. The TGI (NCI-H460 lung) was 3.15 µM and the TGI (K-562 leukemia) was greater than 100 µM.

In the case of `CCCc1nc(N)nc(C(=O)Nc2cccc(C(F)(F)F)c2)c1CC`, the TGI (HT29 colon) is reported as greater than 100 µM, the TGI (HCT-15 colon) is reported as greater than 100 µM and the TGI (MOLT-4 leukemia) is reported as greater than 100 µM. For the same compound, the TGI (OVCAR-5 ovarian) was greater than 100 µM, the TGI (SK-MEL-2 melanoma) was greater than 100 µM and the TGI (RPMI-8226 leukemia) was greater than 100 µM. The TGI (KM12 colon) was greater than 100 µM, the TGI (KM20L2 colon) was greater than 100 µM and the TGI (SK-MEL-28 melanoma) was greater than 100 µM. The TGI (U251 CNS) was greater than 100 µM, the TGI (SNB-75 CNS) was greater than 100 µM and the TGI (786-0 renal) was greater than 100 µM. It also gave a TGI (HCT-116 colon) greater than 100 µM, a TGI (UACC-257 melanoma) greater than 100 µM and a TGI (M19-MEL melanoma) greater than 100 µM. The TGI (A549 NSCLC) was greater than 100 µM, the TGI (ACHN renal) was greater than 100 µM and the TGI (CAKI-1 renal) was greater than 100 µM. For the same compound, the TGI (SW-620 colon) was greater than 100 µM, the TGI (DLD-1 colon) was greater than 100 µM and the TGI (SNB-19 CNS) was greater than 100 µM. For the same compound, the TGI (OVCAR-3 ovarian) was greater than 100 µM, the TGI (HCC-2998 colon) was greater than 100 µM and the TGI (SK-MEL-5 melanoma) was greater than 100 µM. For the same compound, the TGI (M14 melanoma) was greater than 100 µM, the TGI (OVCAR-4 ovarian) was greater than 100 µM and the TGI (DMS 273 small cell lung) was greater than 100 µM. It also gave a TGI (LOX IMVI melanoma) greater than 100 µM, a TGI (A498 renal) greater than 100 µM and a TGI (NCI-H226 lung) greater than 100 µM. The TGI (SF-268 CNS) was greater than 100 µM, the TGI (SF-295 CNS) was greater than 100 µM and the TGI (HOP-62 NSCLC) was greater than 100 µM. For the same compound, the TGI (SF-539 CNS) was greater than 100 µM, the TGI (DMS 114 small cell lung) was greater than 100 µM and the TGI (MALME-3M melanoma) was greater than 100 µM. The TGI (OVCAR-8 ovarian) was greater than 100 µM, the TGI (HOP-92 NSCLC) was greater than 100 µM and the TGI (TK-10 renal) was greater than 100 µM. The TGI (SN12C renal) was greater than 100 µM, the TGI (NCI-H23 lung) was greater than 100 µM and the TGI (RXF 393 renal) was greater than 100 µM. It also gave a TGI (EKVX NSCLC) greater than 100 µM, a TGI (HOP-18 NSCLC) greater than 100 µM and a TGI (UACC-62 melanoma) greater than 100 µM. The TGI (IGROV1 ovarian) was greater than 100 µM, the TGI (HL-60(TB) leukemia) was greater than 100 µM and the TGI (XF 498 CNS) was greater than 100 µM. The TGI (UO-31 renal) was greater than 100 µM, the TGI (SNB-78 CNS) was greater than 100 µM and the TGI (NCI-H460 lung) was greater than 100 µM. For the same compound, the TGI (K-562 leukemia) was greater than 100 µM.
